For one data set, the system named is galanin mRNA. The experiment in a line: Quantitative real time PCR of galanin mRNA in rat brain regions after treatment. It is filed as in vivo. On the procedure: (§1) Tissue dissections. Tissues used for RNA extraction or binding study were rapidly dissected after sacrifice and immediately frozen on dry ice. All dissections were performed by an experienced neuroanatomist with a rat brain slicer and for small structures, like LC and DRN, the punching method was used to assure reproducible dissection.
Quantitative real time PCR. Brain tissues obtained from 12 rats (DRN, LC, paraventricular nucleus of hypothalamus) or 6 rats (prefrontal cortex, amygadala, hippocampus) were pooled and total RNA was prepared with Trizol reagent (Invitrogen, Carlsbad, Calif.) following manufacturer's instructions. For galanin mRNA quantification in DRN and LC after FLX treatment, the experiment was repeated with 3 independent pools of 4 rats per treatment per brain region. Aliquots of total RNA (2 μg) and oligo(dT) primers were then reverse transcribed with ThermoScript RT (Invitrogen) at 51° C. for 60 minutes. Quantitative PCR was performed using a Roche LightCycler and LightCycler Fast Start DNA Master SYBR Green I mix (Roche Applied Science, Indianapolis, Ind.). […] Real time PCR assays included an initial 10 minutes, 94° C. step to activate Taq polymerase, followed by 35 cycles of denaturation 94° C., 10 seconds, annealing 58° C., 10 seconds, and extension 72° C., 25 seconds. The results were expressed in arbitrary units normalized by the expression levels of the reference gene, β-actin.
(§2) Drug treatments. Fluoxetine (FLX, Sigma, St. Louis, Mo.) was dissolved in saline and administered i.p. at a dose of 10 mg/kg daily for 14 days for biochemical studies. Separate groups of rats received daily i.p. injections of FLX or saline vehicle for 14 days for testing in the forced swim task. On day 14, rats were administered FLX or saline i.p. at 45 minutes prior to the forced swim test and M40 (Bachem, King of Prussia, Pa.) or ACSF i.c.v. at 15 minutes prior to the forced swim test (see methods below). Single i.c.v. microinjections of M40 (8 nmol/2 μl ACSF) or ACSF (2 μl) were performed with a 10 μl Hamilton syringe connected via Becton Dickinson polyethylene tubing (PE20) to a 1.5 cm injector (Plastics One) fabricated from 31 gauge hypodermic tubing. The animal was allowed to freely explore a small cage during the infusion of 2 μl over 1.5 minutes, with each 1 μl separated by ten seconds, and an additional sixty seconds before the injector was withdrawn from the guide cannula. The treatments consisted of equal numbers of rats receiving one of the following combinations of treatments: saline+ACSF, saline+M40, FLX+ACSF, or FLX+M40. […] One week after the forced swim test, rats were randomly assigned to treatment groups. Rats were treated with vehicle, galnon or desipramine. Forty five minutes after injection, rats were subjected to the open field test.
On the technique in general: In qPCR the cycle at which signal appears reflects the starting amount.

The next data set deals with GalR2 sites. The experiment in a line: GalR2 binding sites in brain tissue after treatment, saturating [125I]galanin binding with galanin (2-11) as competitor. It is filed as in vivo, rat. The conditions noted are these: FLX 10 mg/kg i.p. 14 days. On the procedure: as §1
(§3) Membrane preparation and binding assay. DRN and LC were dissected from a total of 16 rats per group and samples from 4 animals were pooled. […] Incubations were at room temperature for 45 minutes and terminated by rapid filtration through glass fiber filters (Packard, Meriden, Conn.). After three washes with cold PBS (pH 7.4) containing 0.01 % (v/v) Triton X 100, the filter was counted with Cobra II auto Gamma counting systems (Parkard Bioscience, Downer Grove, Ill.).
(§4) Neurol. […] Anxiety 2000, 12, 170-7; Nolen, W. A., et al. Int. Clin. Psychopharmacol. […] Neurol. […] As GalR3 is not abundant in the regions tested, GalR1 sites were estimated by subtracting GalR2 sites from the sum of GalR1 and GalR2 receptor sites. […] Neurol.
(§5) Drug treatments. Fluoxetine (FLX, Sigma, St. Louis, Mo.) was dissolved in saline and administered i.p. at a dose of 10 mg/kg daily for 14 days for biochemical studies. Separate groups of rats received daily i.p. injections of FLX or saline vehicle for 14 days for testing in the forced swim task. […]

For a further data set, the system named is GalR1 sites. Briefly: GalR1 binding sites in brain tissue after treatment, total galanin-binding sites minus GalR2 sites. The conditions noted are these: rat DRN, FLX 10 mg/kg i.p. 14 days. In kind it is in vivo. On the procedure:
as §1, §3, §4, §5

Data set [1] deals with time spent active in forced swim test. The experiment in a line: Forced swim test. In kind it is in vivo, rat.
Experimental: Rats underwent aseptic stereotaxic surgery under ketamine (100 mg/kg, i.p.) xylazine (10 mg/kg, i.p.) anesthesia. A guide cannula 1.4 cm in length, of 26 gauge stainless steel hypodermic tubing (Plastics One, St. Louis, Mo.) was implanted into the right lateral ventricle at coordinates 0.5 mm posterior, 1.0 mm lateral to bregma, and 3.5 mm ventral to the surface of the skull. A 31 gauge stylet was secured to the guide cannula following the surgery. After surgery, rats were given at least 8 days recovery before the start of behavioral testing.
Fluoxetine (FLX, Sigma, St. Louis, Mo.) was dissolved in saline and administered i.p. at a dose of 10 mg/kg daily for 14 days for biochemical studies. Separate groups of rats received daily i.p. injections of FLX or saline vehicle for 14 days for testing in the forced swim task. On day 14, rats were administered FLX or saline i.p. at 45 minutes prior to the forced swim test and M40 (Bachem, King of Prussia, Pa.) or ACSF i.c.v. at 15 minutes prior to the forced swim test (see methods below). Single i.c.v. microinjections of M40 (8 nmol/2 μl ACSF) or ACSF (2 μl) were performed with a 10 μl Hamilton syringe connected via Becton Dickinson polyethylene tubing (PE20) to a 1.5 cm injector (Plastics One) fabricated from 31 gauge hypodermic tubing. The animal was allowed to freely explore a small cage during the infusion of 2 μl over 1.5 minutes, with each 1 μl separated by ten seconds, and an additional sixty seconds before the injector was withdrawn from the guide cannula. The treatments consisted of equal numbers of rats receiving one of the following combinations of treatments: saline+ACSF, saline+M40, FLX+ACSF, or FLX+M40. Additional treatment groups (n=10 per group) were examined in a separate forced swim test 45 minutes after i.p. injection of one of the following: 50% DMSO (w/v), galnon (Vulpes, Estonia; dissolved in 50% DMSO), or desipramine (Sigma, St Louis, Mo., 15 mg/kg in 50% DMSO).
Forced swim test. Rats were placed singly in a cylindrical glass container (48 cm height, 21 cm diameter) with tap water (25° C.) to a depth of 27 cm and tested for 10 minutes. Water was changed and the cylinder thoroughly rinsed after each test. Tests were recorded on videotape and later scored by an experienced observer blind to the experimental conditions of the rats.
Data for forced swim test studies utilizing galnon and desipramine were subject to a one factor analysis of variance (ANOVA), with drug treatment as the between subjects factor. For the M40 FLX study, data were subject to a two factor between subjects design, with chronic drug treatment (FLX vs vehicle) and i.c.v. drug (M40 vs ACSF) as the main factors. Significant main effects were followed up with Fisher's LSD posthoc test to determine specific group differences.
In data set [2] the test system is locomotor activity (line crossing). The experiment in a line: Open field test. It is filed as in vivo, rat. The conditions noted are these: for locomotor activity in the open field (words): desipramine 15 mg/kg. On the procedure: as §2, with “treatments. […]” for “treatments. Fluoxetine (FLX, Sigma, St.”, “and […]” for “and M40”, “or […].” for “or ACSF i.c.v.”, “or FLX+[…].” for “or FLX+M40.”, “groups. […]” for “groups. Rats were treated with vehicle, galnon or desipramine.”, “test. Open field test. One week after the forced swim test, rats were randomly assigned to treatment groups. […] The apparatus consisted of a square arena (100 by 100 cm), with a 40 cm high opaque white wall. The floor was marked into 9 equal segments and fluorescent light provided diffuse overhead illumination. Locomotor activity over 5 minutes was recorded on videotape. Tapes were later scored blind to the experimental condition of the animals. Line crossing behavior (defined as at least three paws in a square) was tallied and compared between experimental conditions.” for “test.”

Data set [3] concerns time spent active in forced swim test. Particulars: dose that suppresses status epilepticus; Bartfai et al. 2004; cited from earlier work.
The target of a further data set is T1, rat GalR2 (Rattus norvegicus, UniProt O08726).
T1 construct: expressed in transfected cells; host or cells: CHO cells, stably transfected
T1 sequence (O08726 1-372): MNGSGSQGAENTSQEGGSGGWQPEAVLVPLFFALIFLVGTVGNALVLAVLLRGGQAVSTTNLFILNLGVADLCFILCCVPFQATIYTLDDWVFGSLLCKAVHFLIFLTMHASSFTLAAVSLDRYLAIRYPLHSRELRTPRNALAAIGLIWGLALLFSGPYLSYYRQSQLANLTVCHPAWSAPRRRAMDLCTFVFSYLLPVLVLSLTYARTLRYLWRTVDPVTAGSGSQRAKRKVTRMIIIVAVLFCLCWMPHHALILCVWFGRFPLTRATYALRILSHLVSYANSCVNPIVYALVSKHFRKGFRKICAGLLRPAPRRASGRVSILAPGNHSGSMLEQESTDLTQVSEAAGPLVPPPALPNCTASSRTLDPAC
The experiment in a line: Displacement of [125I]galanin binding from membranes of GalR2-expressing cells. The conditions noted are these: data not shown. The text has this:
Cell lines. Stably transfected Chinese Hamster Ovary (CHO) cells expressing rat GalR2, and Bowes' melanoma cells that express human GalR1, were cultivated as described earlier (Wang, S., et al. Biochemistry 1998, 37, 6711-7; and Heuillet, E., et al. Eur. J. Pharmacol. 1994, 269, 139-47).
Membrane preparation and binding assay. DRN and LC were dissected from a total of 16 rats per group and samples from 4 animals were pooled. Rat brain synaptic membranes (Lu, X., et al. Neurosci. Lett. 2000, 286, 149-53) and cells were prepared as previously described (Heuillet, E., et al. Eur. J. Pharmacol. 1994, 269, 139 47). Equilibrium binding of ^125I, galanin (2200 Ci/mmol, PerkinElmer Life Science, Boston, Mass.) to hippocampal membrane preparations was performed in 150 μL binding buffer [50 mM Tris Cl (pH 7.4), 5 mM MgCl2, 0.05 % (w/v) bovine serum albumin, supplemented with protease inhibitors]. Incubations were at room temperature for 45 minutes and terminated by rapid filtration through glass fiber filters (Packard, Meriden, Conn.). After three washes with cold PBS (pH 7.4) containing 0.01 % (v/v) Triton X 100, the filter was counted with Cobra II auto Gamma counting systems (Parkard Bioscience, Downer Grove, Ill.).
In general terms: In a radioligand displacement assay an active substance lowers the binding of a labelled ligand.

The next data set concerns withdrawal signs. Particulars: Zachariou et al. 2003, cited from earlier work.
For a further data set, the system named is seizures. The conditions noted are these: Saar et al. 2002; cited from earlier work.

“And” between values parts separate entries of the source, which are not always exact repeats. Identical values can stand only once. “Also recorded” adds a separate entry of the source. Like-named read-outs stand apart in the source and are kept apart here. Square brackets hold non-standard residues; d marks the D form. Peptide text beside a SMILES is read from it. * marks the point of attachment. Fmoc = O=C(OCC1c2ccccc2-c2ccccc21)*; Cha = N[C@@H](CC1CCCCC1)C(=O)O; AMC = Cc1cc(=O)oc2cc(N*)ccc12

As for `CNCCC(Oc1ccc(C(F)(F)F)cc1)c1ccccc1` (stereo not shown) [FLX, fluoxetine], the “increase in galanin mRNA levels in DRN” value amounted to 100% in the data set with galanin mRNA (rat DRN, FLX 10 mg/kg i.p. 14 days) and 2 fold in the data set with galanin mRNA (rat DRN, FLX 10 mg/kg i.p. 14 days, pooled samples). Further, the “effect on galanin mRNA in DRN” value in the data set on galanin mRNA (rat DRN, FLX 14 days, three independent pools, P<0.05 vs Ctrl) is recorded as “increased galanin mRNA”. In the data set with galanin mRNA (rat LC, FLX 10 mg/kg i.p. 14 days, pooled samples), the “increase in galanin mRNA levels in LC” value was found to be 2.2 fold. Besides, in the data set with galanin mRNA (rat LC, FLX 14 days), the “effect on galanin mRNA in LC” value is recorded as “increased galanin mRNA”. Besides, in the data set on GalR2 sites (rat DRN), the “increase in number of GalR2 binding sites in DRN” value is 50% and 58%. Also, the “effect on GalR2 sites in LC” value with GalR2 sites (rat LC) was “not in LC”. Further, the “effect on number of GalR1 binding sites in DRN” value in the data set on GalR1 sites is reported as “without changes; also recorded: unaltered”. Also, the “increase in time spent active in the forced swim test vs saline-pretreated rats” value in data set [1] (FLX 10 mg/kg i.p. 14 days, 10 minute test, P<0.05) is ~46%. In addition, the “time spent active in the forced swim test” value in data set [1] (FLX 10 mg/kg i.p. 14 days, FLX+ACSF vs Saline+ACSF, p<0.05) is “significant increase”.

Take `CNCCCN1c2ccccc2CCc2ccccc21` [desipramine]: the “activity in the forced swim test” value in data set [1] (desipramine 15 mg/kg i.p., positive control) is “significantly increased activity”. Further, the “increase in activity in the forced swim test” value in [1] (desipramine 15 mg/kg i.p., positive control, p<0.001) amounted to 125%. Besides, the “locomotor activity in the open field (words)” value in data set [2] (p<0.01) is “significantly reduced activity”; in data set [2] (p<0.01, listed as Desipramine), “significant reduction”.

Regarding `COC(=O)[C@H](CCCCN)NC(=O)[C@]1(C)NC(=O)c2nc(oc2C)[C@](C)(C(=O)NC2c3ccccc3-c3ccccc32)NC(=O)c2nc(oc2C)[C@](C)(C(=O)NCC2CCCCC2)NC(=O)c2nc1oc2C` [galmic], the “effect in the forced swim test” value in data set [3] is reported as “antidepressant like effect”.

One may read the Ki as a measure of affinity in units of concentration, obtained from inhibition or displacement. Higher therefore signals lower affinity. Consider `Cc1cc(=O)oc2cc(NC(=O)[C@H](CCCCN)NC(=O)[C@H](CC3CCCCC3)NC(=O)OCC3c4ccccc4-c4ccccc43)ccc12` [galnon] (Fmoc-[Cha]-Lys-{AMC}), for which, on rat GalR2, the inhibition constant Ki is 34.1 µM. Also, the “increase in activity in the forced swim test” value in data set [1] (galnon 20 mg/kg i.p., p<0.05) is listed as “significant”; in [1] (galnon 40 mg/kg i.p., p<0.01), “significant”. Further, in [1] (galnon 1-40 mg/kg i.p., 45 minutes after injection), the “activity in the forced swim test” value was “significant increase; also recorded: dose dependent increase”. The “activity in the open field” value in data set [2] (galnon 20 mg/kg, p<0.01) is “significantly reduced”; in [2] (galnon 40 mg/kg, p<0.05), “significantly reduced”; in [2] (higher doses of galnon, P<0.05 vs control), “significantly reduced activity”. Further, the results for the “effect on withdrawal signs (words)” value in the data set with withdrawal signs and in the data set on withdrawal signs (listed as Galnon) were “attenuate several withdrawal signs” and “inhibit signs of opiate withdrawal”, respectively. For the same compound, the “latency of phenyleneterazol induced seizures” value in the data set with seizures was “increase the latency”.

The values above are taken from US20060177853A1, “Antidepressant drug target” (The Scripps Research Institute, priority 2005, published 2006).
